Laboratory results from patent US7384950B2, “Thienopyrimidinediones and their use in the modulation of autoimmune disease” (AstraZeneca AB, priority 2001, dated 2008).

Test system: PMA/ionomycin-stimulated peripheral blood mononuclear cell (PBMC)
Assay: Inhibition of PMA/ionomycin-stimulated peripheral blood mononuclear cell proliferation
Type: cell-based
Details: human PBMC from a single donor, 10% human serum, PMA 0.5 ng/ml and ionomycin 500 ng/ml, 72 hours, 3H-thymidine incorporation; read-out: IA50 (the source's name)
Experimental: The ability of compounds which can inhibit PMA/ionomycin-stimulated peripheral blood mononuclear cell proliferation can be assessed, for example using the procedure set out below:
Inhibition of PMA/ionomycin-stimulated Peripheral Blood Mononuclear Cell Proliferation
The assay for PMA/ionomycin-stimulated PBMC proliferation was performed in 96-well flat bottomed microtitre plates. Compounds were prepared as 10 mM stock solutions in dimethyl sulfoxide. A 50-fold dilution of this was prepared in RPMI and serial dilutions were prepared from this solution. 10 μl of the 50-fold diluted stock, or dilutions of it, were added to the well to give concentrations in the assay starting at 9.5 μM and going down. Into each well was placed 1×10^5 PBMC, prepared from human peripheral blood from a single donor, in RPMI1640 medium supplemented with 10% human serum, 2 mM glutamine and penicillin/streptomycin. Phorbol myristate acetate (PMA) (0.5 ng/ml final concentration) and ionomycin (500 ng/ml final concentration) were added to these cells in supplemented RPMI1640 medium (as above) so that the final volume of the assay was 0.2 ml. […] The level of radioactivity incorporated by the cells was then determined and this is a measure of proliferation.

With `CC(C)n1c(=O)n(C)c(=O)c2c(C(=O)N3C[C@H](O)CO3)c(Cc3ccnc4ccccc34)sc21` [Example 20, (S) 5-{4-Hydroxyisoxazolidin-2-ylcarbonyl}-3-methyl-1-(isopropyl)-6-(4-quinolinylmethyl)thieno[2,3-d]pyrimidine-2,4(1H,3H)-dione] the IC50 was 5 nM.
